Key:
[1] = target: phosphodiesterase PDE4; assay: Inhibition of phosphodiesterase PDE4; assay type: biochemical; details: human U937 cells; read-out: IC50 against phosphodiesterase PDE4
Experimental: Human U937 cells were used in this assay. The final DMSO concentration in the assay was about 1%. The assay was pre-incubated at 25° C. for 15 min and then incubated at 25° C. for 20 min in an incubation buffer (50 mM Tris-HCl, pH 7.5, 5 mM MgCl2). The assay was quantitated by measuring the amount of [^3H]adenosine.

[2] = Solubility tests of the ketone substrate in solvents; assay type: physicochemical; details: 20 ° C.
Experimental: Solubility tests were conducted by adding (4-fluorophenyl)(4-(5-methyl-4H-pyrazol-3-ylamino)quinazolin-2-yl)methanone in small portions to a number of solvents until a suspended solid persisted. A number of solvents were selected for this study based on their suitability as co-solvents for the reaction.

[3] = Solubility tests of ketone, alcohol and their mixture in IPA/DMSO/water at 70° C.; assay type: physicochemical; details: 1.113 g of material at 70° C., IPA 4 mL, Water 0.5 mL
Experimental: The aim of these experiments was to find the minimum amount of DMSO necessary to dissolve reagents and create homogeneous reaction mixture. One tube contained starting material, the second one a mixture of starting material and product (1/1) to simulate situation when reaction is half complete and the third tube contained product. Experiments were started in 5 mL of IPA/DMSO/water (8/1/1), where none of the mixtures was soluble at 70° C. DMSO was then added dropwise until full solubility could be reached. […] At these conditions, starting material was still partially undissolved. This experiment was used to determine the necessary amounts of DMSO to create a homogeneous reaction mixture (upon keeping the original quantities of IPA and water).

[4] = cynomolgus monkey, in vivo
[5] = target: human adenosine A3 receptor (Homo sapiens (Human), UniProt P0DMS8); assay: Adenosine A3 receptor radioligand binding assay ([125I] AB-MECA)
Experimental: Incubations of a range of concentration of each compound were carried out in duplicates for 1 h at 25° C. in 25 mM HEPES, pH 7.4, 5 mM MgCl2, 1 mM CaCl2, 0.1% BSA, in the presence of 0.5 nM [^125I] AB-MECA. Non-specific binding was determined in the presence of 1 μM IB-MECA.

human adenosine A3 receptor, sequence (P0DMS8 whole entry): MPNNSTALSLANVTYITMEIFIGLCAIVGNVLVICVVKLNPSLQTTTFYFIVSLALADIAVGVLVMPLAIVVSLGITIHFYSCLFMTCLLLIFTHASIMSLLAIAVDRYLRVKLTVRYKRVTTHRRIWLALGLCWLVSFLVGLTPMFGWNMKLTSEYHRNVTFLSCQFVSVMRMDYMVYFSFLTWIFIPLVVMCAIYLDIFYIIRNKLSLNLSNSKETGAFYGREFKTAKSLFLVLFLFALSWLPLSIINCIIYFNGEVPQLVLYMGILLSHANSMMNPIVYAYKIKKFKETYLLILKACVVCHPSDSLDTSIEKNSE

Result (solubility test) ([3]; DMSO 0.5 mL) | Result (solubility test) ([3]; DMSO 5.5 mL) | Result (solubility test) ([3]; DMSO 7.5 mL) | Hill Coefficient [5] | Structure (SMILES) | other results
 |  |  |  | Cc1cc(Nc2nc(C(O)c3ccc(F)cc3)nc3ccccc23)n[nH]1 (racemic) [Racemate] | IC50 [1]: 2530 nM
 |  |  |  | CC1=NN=C(Nc2nc(C(=O)c3ccc(F)cc3)nc3ccccc23)C1 [(4-fluorophenyl)(4-(5-methyl-4H-pyrazol-3-ylamino)quinazolin-2-yl)methanone] | Solubility ([2]; solvent DMSO): 12000 to 149000 µg/mL; Solubility ([2]; solvent EtOAc): <6000 µg/mL; Solubility ([2]; solvent IPA-H2O (9:1)): <7000 µg/mL; Solubility ([2]; solvent PhMe): <9000 µg/mL; Solubility ([2]; solvent THF): <17000 µg/mL
Not dissolved | Dissolved | Dissolved |  | CCO [Alcohol] | 
Not dissolved | Not dissolved | Not dissolved |  | Cc1cc(Nc2nc(C(=O)c3ccc(F)cc3)nc3ccccc23)n[nH]1 [Ketone] | 
 |  |  | 1.14 | Cc1cc(Nc2nc([C@H](O)c3ccc(F)cc3)nc3ccccc23)n[nH]1 [R-isomer] | share of the Cmax and AUC values determined for the racemic compound ([4]; male): over 85%
 |  |  | 0.811 | Cc1cc(Nc2nc([C@@H](O)c3ccc(F)cc3)nc3ccccc23)n[nH]1 [S-isomer] | proportion of both enantiomers in plasma ([4]; po): almost equal proportions
